{"source": "patent US11773109B2", "about": "“Composition for hardening soft tissue” (The Catholic University of Korea Industry—Academic …, priority 2016, dated 2023)", "key": {"[1]": {"system": "pancreas of mice", "test": "Hardness (elastic modulus) of the mouse pancreas after treatment, hardness meter (Venustron)", "assay_type": "in vivo", "details": "mouse pancreas treated with 1 mM of compound; compared to control (PBS / untreated); result in words", "protocol": "The measurement of the hardness according to the present invention is performed using a hardness meter, and measurement of the hardness of the pancreas is performed by measuring elastic modulus (EM) based on the Hooke's law and the Hertz's contact stress theory. The EM is a measure of the stiffness of an elastic material, and is expressed as the ratio of “the stress along the axis” and “the total strain along the axis within the range of the stress” by the Hooke's law.\n(§1) More specifically, three mice were treated with 1 mM of each of the antibiotics shown above, and three mice were treated with phosphate buffered saline (PBS) as a control.\n(1) Measurement of Hardness\nIn order to measure the resistance of the pancreas using a hardness meter, the elastic modulus (EM) of the dissected pancreas was measured using Venustron (Axiom, Koriyama, Japan) based on the Hooke's law and the Hertz's contract stress theory, and the resistance of the pancreas was calculated using the following equation: […]\n(F, force; v, Poisson's ratio; t, variant of compression; r, the diameter of a rigid spherical probe that presses an object vertically)"}, "[2]": {"system": "pancreas of mice", "test": "Tension (suture-holding capacity) of the mouse pancreas after treatment, Newton dynamometer", "assay_type": "in vivo", "details": "mouse pancreas treated with 1 mM of compound; for change in the tension of the pancreas compared to the control: compared to control (PBS / untreated), result in words; for response vs control in vivo at 1000 µM: fold of control, read-out: increase of the tension of the pancreas compared to the control", "protocol": "Specifically, it means a force which occurs in an organ in response to an external force exerted by stretching or pulling action. The measurement of the tension according to the present invention is performed using a dynamometer. More specifically, the tension is determined by measuring suture-holding capacity using a Newton dynamometer. At this time, the tension is calculated by adding the weight of the tissue.\nas §1\n(2) Measurement of Tensile\nThe tension of the pancreas was measured using a dynamometer. Specifically, a pancreatic fragment having a size of 1×1×1.5 cm was prepared, and then silk 4-0 suture was passed through the tissue to form a knob, and suture-holding capacity was measured using a Newton dynamometer. At this time, the tension was calculated by adding the weight of the tissue."}}}
{"smiles": "CC1(C)S[C@@H]2[C@H](NC(=O)Cc3ccccc3)C(=O)N2[C@H]1C(=O)OCC1CCCCC1", "note": "[KRM-60029, Cyclohexylmethyl (2S,5R,6R)-3,3-dimethyl-7-oxo-6-(2-phenylacetamido)-4-thia-1-azabicyclo[3.2.0]heptane-2-carboxylate]", "values": [{"measurement": "change in the hardness of the pancreas compared to the control", "setting": "[1]", "value": "both the hardness and tension of the pancreas increased"}, {"measurement": "change in the tension of the pancreas compared to the control", "setting": "[2]", "value": "both the hardness and tension of the pancreas increased"}]}
{"smiles": "O=C(O)c1cc(O)c2cccc(O)c2n1", "note": "[KRP-00005, 4,8-dihydroxyquinoline-2-carboxylic acid]", "values": [{"measurement": "change in the hardness of the pancreas compared to the control", "setting": "[1]", "value": "increased both the hardness and tension"}, {"measurement": "change in the tension of the pancreas compared to the control", "setting": "[2]", "value": "increased both the hardness and tension"}, {"measurement": "response vs control in vivo at 1000 µM", "setting": "[2]", "value": "≥ 150", "unit": "%"}]}
{"smiles": "Oc1ccc(Cl)c2cccnc12", "note": "[KRP-00002, 5-chloro-8-hydroxyquinoline]", "values": [{"measurement": "change in the hardness of the pancreas compared to the control", "setting": "[1]", "value": "increased both the hardness and tension"}, {"measurement": "change in the tension of the pancreas compared to the control", "setting": "[2]", "value": "increased both the hardness and tension"}, {"measurement": "response vs control in vivo at 1000 µM", "setting": "[2]", "value": "≥ 150", "unit": "%"}]}
{"smiles": "O=C(O)c1cnc2cc(Cl)ccc2c1O", "note": "[KRP-00001, 7-chloro-4-hydroxy-3-quinolinecarboxylic acid]", "values": [{"measurement": "change in the hardness of the pancreas compared to the control", "setting": "[1]", "value": "increased both the hardness and tension"}, {"measurement": "change in the tension of the pancreas compared to the control", "setting": "[2]", "value": "increased both the hardness and tension"}, {"measurement": "response vs control in vivo at 1000 µM", "setting": "[2]", "value": "≥ 150", "unit": "%"}]}
{"smiles": "CCn1cc(C(=O)O)c(=O)c2cnc(N3CCNCC3)nc21", "note": "[KRM-60082, 8-ethyl-5-oxo-2-(piperazin-1-yl)-5,8-dihydropyrido[2,3-d]pyrimidine-6-carboxylic acid]", "values": [{"measurement": "change in the hardness of the pancreas compared to the control", "setting": "[1]", "value": "increased both the hardness and tension of the pancreas to significant levels"}, {"measurement": "change in the tension of the pancreas compared to the control", "setting": "[2]", "value": "increased both the hardness and tension of the pancreas to significant levels"}]}
